Measurements published in US8883798B2, “Pyrimidine compounds inhibiting the formation of nitric oxide and prostaglandin E2, method of production thereof and use thereof” (Ustav Organicke Chemie a Biochemie Akademie Ved CR, V.V.I., priority 2011, dated 2014).

Tests used:
peritoneal cells of mice = assay: Cell viability of mouse peritoneal cells (WST-1 kit); type: cell-based; conditions: substance 50 μmol·l^−1, 24 h; for Cell viabilities in % of the controls: Table 3B; for Cell viability in % of the controls: Table 3A
Experimental: Cell viability was determined in the standard way using a WST-1 kit (Roche). The values of the viability of the control cells were for the purposes of comparison between experiments considered as 100%. The influence of the substances on the longevity of the cells was evaluated in percentage with respect to the control values.
(§1) Experiments were performed on mice peritoneal cells C57BL/6 (Charles River, Germany—AnLabu).
(§2) NO production was induced using IFN-g (5000 pg/mL) plus LPS (100 pg/mL); evaluated (Griess reagent) after 24 h of the cell cultivation (2×10^6/mL). PGE2 was induced using LPS (10 ng/mL); evaluated (ELISA) following 6 h cultivation of cells (3×10^6/mL). Cell longevity was evaluated using WST-1 (tetrazolium salt), following 24 h cultivation of cells (1×10^6/mL). The values mentioned in the table represent the effects of the substances tested in a concentration of 50 μmol·l^−1.

[1] = tested on: production of prostaglandin E2 (PGE2); assay: Production of prostaglandin E2 (PGE2) in cultures of mouse peritoneal cells stimulated with LPS (ELISA kit); type: cell-based, mice; conditions: for Production of prostaglandins IC50 (μmol · 1^−1) average value and range of values: Table 3B, 6 h; for Production of prostaglandins in % of the controls: Table 3A, substance 50 μmol·l^−1, 6 h
Experimental: (§3) Under in vitro conditions, the effect of the pyrimidine compounds according to this invention was tested in terms of the production of nitric oxide (NO) and in terms of the production of prostaglandin E2 (PGE2) in cultures of the peritoneal cells of mice.
The influence on the production of prostaglandin E2 (PGE2) in vitro caused by the activity of the pyrimidine compounds according to the submitted invention was determined in cultures of the peritoneal cells of mice using a commercial kit (R&DSystems). The concentrations of PGE2 after lipopolysacharide (LPS) stimulation reached in the individual experiments values in a range of 22 to 91 ng·ml^−1 and for the purposes of comparison between the experiments were considered as 100%. The influence of the substances on the production of PGE2 was evaluated in percentage with respect to the control values.
as §1, §2

[2] = tested on: production of nitric oxide (NO); assay: Production of nitric oxide (NO) in cultures of mouse peritoneal cells stimulated with IFN-γ plus LPS (Griess reagent); type: cell-based, mice; conditions: substance 50 μmol·l^−1, IFN-g plus LPS, 24 h
Experimental: as §3
NO is a product of the metabolism of L-arginine, quickly changes to […], which are then measured using the Griess reagent system. Under normal conditions, the production of NO is practically zero. It only occurs after some stimulation. In these experiments, interferon-gamma (IFN-γ) and bacterial lipopolysacharide (LPS) were used as stimulators. The values of NO induced in this way fluctuated in the individual experiments in a range from 52 to 89 μmol·l^−1; for the purposes of comparison between the experiments they were considered as 100%. The production of NO after the application of the substances was expressed in percentage with respect to the control values. (The lower the value, the higher the inhibition effect of the substances on NO production.) IC50 are the concentrations of the substances reducing the production of NO by 50% with respect to the controls.
as §1, §2

Row | SMILES | Production of prostaglandins IC50 (μmol · 1^−1) average value and range of values [1] | Cell viabilities in % of the controls (peritoneal cells of mice) | Production of nitric oxide in % of the controls ([2]; Table 3B) | Cell viability in % of the controls (peritoneal cells of mice) | Production of prostaglandins in % of the controls [1] | Production of nitric oxide in % of the controls ([2]; Table 3A)
1 | CC(C)c1c(Cl)nc(N=CN(C)C)nc1Cl [Substance 16] |  |  |  | 134.83 ± 16.51 % of the controls | 32.10 ± 2.31 % of the controls | 7.32 ± 2.68 % of the controls
2 | CCCCc1c(-c2ccsc2)nc(N)nc1-c1cccs1 [Substance 111] | 56.94 ± 12.51; n = 6 μmol · 1^−1 | 105.47 ± 5.51; n = 8 % of the controls | 57.52 ± 1.81; n = 4 % of the controls |  |  | 
3 | CCCCc1c(Cl)nc(N)nc1-c1cc2ccccc2s1 [Substance 132] | 20.76 ± 9.35; n = 4 μmol · 1^−1 | 84.08 ± 4.71; n = 8 % of the controls | 49.61 ± 6.36; n = 4 % of the controls |  |  | 
4 | CCCCc1c(-c2ccco2)nc(N)nc1-c1ccco1 [Substance 100] | 22.46 ± 7.25; n = 2 μmol · 1^−1 | 69.04 ± 4.47; n = 8 % of the controls | 33.70 ± 2.71; n = 6 % of the controls |  |  | 
5 | O=CNc1nc(Cl)c(Cc2ccccc2)c(Cl)n1 [Substance 59] |  |  |  | 58.75 ± 5.34 % of the controls | 3.84 ± 0.11 % of the controls | 0.15 ± 0.01 % of the controls
6 | CCCCc1c(Cl)nc(N)nc1-c1ccc(F)cc1 [Substance 71] | 26.66 ± 11.71; n = 4 μmol · 1^−1 | 94.59 ± 7.75; n = 4 % of the controls | 37.07 ± 6.31; n = 4 % of the controls |  |  | 
7 | CCCCc1c(-c2ccoc2)nc(N)nc1-c1ccsc1 [Substance 113] | 85.05 ± 9.96; n = 4 μmol · 1^−1 | 101.51 ± 12.74; n = 8 % of the controls | 63.79 ± 1.64; n = 6 % of the controls |  |  | 
8 | CCCc1c(Cl)nc(N=CN(C)C)nc1Cl [Substance 15] |  |  |  | 109.35 ± 8.88 % of the controls | 14.76 ± 0.52 % of the controls | 8.42 ± 4.75 % of the controls
9 | CCCCc1c(Cl)nc(N)nc1-c1ccc(OC)cc1 [Substance 75] | 4.7 ± 1.17; n = 4 μmol · 1^−1 | 86.35 ± 9.29; n = 8 % of the controls | 15.96 ± 4.83; n = 4 % of the controls |  |  | 
10 | CCCc1c(Cl)nc(NC=O)nc1Cl [Substance 50] |  |  |  | 98.59 ± 6.59 % of the controls | 14.20 ± 7.00 % of the controls | 3.95 ± 2.27 % of the controls

More lines, main results first:

Row | Production of prostaglandins IC50 (μmol · 1^−1) average value and range of values [1] | SMILES | Cell viabilities in % of the controls (peritoneal cells of mice) | Production of nitric oxide in % of the controls ([2]; Table 3B) | Cell viability in % of the controls (peritoneal cells of mice) | Production of prostaglandins in % of the controls [1] | Production of nitric oxide in % of the controls ([2]; Table 3A)
11 | 49.17 ± 9.72; n = 4 μmol · 1^−1 | CCCCc1c(-c2ccccc2)nc(N)nc1-c1cc2ccccc2o1 [Substance 116] | 95.24 ± 4.78; n = 8 % of the controls | 72.69 ± 10.36; n = 4 % of the controls |  |  | 
12 | 27.85 ± 10.82; n = 8 μmol · 1^−1 | CCCCc1c(-c2ccc(OC)cc2)nc(N)nc1-c1cccc2ccccc12 [Substance 134] | 93.40 ± 5.59; n = 12 % of the controls | 33.09 ± 7.25; n = 8 % of the controls |  |  | 
13 | 68.07 ± 2.56; n = 4 μmol · 1^−1 | CCCCc1c(-c2ccccc2)nc(N)nc1-c1ccsc1 [Substance 107] | 69.08 ± 1.78; n = 4 % of the controls | 69.69 ± 6.09; n = 4 % of the controls |  |  | 
14 | 52.17 ± 14.96; n = 6 μmol · 1^−1 | CCCCc1c(-c2ccccn2)nc(N)nc1-c1cc2ccccc2o1 [Substance 118] | 91.38 ± 4.41; n = 8 % of the controls | 56.53 ± 3.33; n = 8 % of the controls |  |  | 
15 | 42.94 ± 11.04; n = 6 μmol · 1^−1 | CCCCc1c(-c2ccccc2)nc(N)nc1-c1ccccn1 [Substance 76] | 97.97 ± 5.33; n = 8 % of the controls | 45.05 ± 3.55; n = 4 % of the controls |  |  | 
16 | 18.12 ± 0.99; n = 6 μmol · 1^−1 | CCCCc1c(Cl)nc(N)nc1-c1ccccc1 [Substance 68] | 94.17 ± 8.43; n = 8 % of the controls | 27.78 ± 2.11; n = 4 % of the controls |  |  | 
17 | 66.80 ± 8.64; n = 4 μmol · 1^−1 | CCCCc1c(-c2ccc(F)cc2)nc(N)nc1-c1ccoc1 [Substance 103] | 147.62 ± 3.25; n = 8 % of the controls | 66.44 ± 3.19; n = 6 % of the controls |  |  | 
18 | 68.47 ± 8.71; n = 2 μmol · 1^−1 | CCCCc1c(-c2ccco2)nc(N)nc1-c1cc2ccccc2o1 [Substance 122] | 81.66 ± 4.41; n = 8 % of the controls | 35.04 ± 5.71; n = 6 % of the controls |  |  | 
19 | 41.84 ± 7.54; n = 2 μmol · 1^−1 | CCCCc1c(-c2ccc(OC)cc2)nc(N)nc1-c1cccnc1 [Substance 80] | 103.13 ± 4.24; n = 8 % of the controls | 35.18 ± 4.39; n = 4 % of the controls |  |  | 
20 | 92.30 ± 9.20; n = 4 μmol · 1^−1 | CCCCc1c(-c2ccccn2)nc(N)nc1-c1cccs1 [Substance 89] | 104.15 ± 10.36; n = 8 % of the controls | 19.62 ± 4.08; n = 6 % of the controls |  |  | 
21 | 28.69 ± 0.00; n = 2 μmol · 1^−1 | CCCCc1c(-c2ccccn2)nc(N)nc1-c1cccc2ccccc12 [Substance 135] | 64.97 ± 12.85; n = 8 % of the controls | 18.45 ± 5.66; n = 6 % of the controls |  |  | 
22 | 31.93 ± 15.87; n = 4 μmol · 1^−1 | CCCCc1c(-c2cccnc2)nc(N)nc1-c1cccs1 [Substance 90] | 69.80 ± 6.79; n = 4 % of the controls | 50.11 ± 3.95; n = 4 % of the controls |  |  | 
23 | 72.55 ± 19.06; n = 2 μmol · 1^−1 | CCCCc1c(-c2cccnc2)nc(N)nc1-c1cccc2ccccc12 [Substance 136] | 111.00 ± 0.97; n = 4 % of the controls | 70.28 ± 3.71; n = 4 % of the controls |  |  | 
24 | 59.49 ± 9.09; n = 2 μmol · 1^−1 | CCCCc1c(-c2ccccc2)nc(N)nc1-c1cccnc1 [Substance 78] | 78.08 ± 5.20; n = 4 % of the controls | 52.81 ± 2.91; n = 4 % of the controls |  |  | 
25 | 28.00 ± 9.43; n = 2 μmol · 1^−1 | CCCCc1c(-c2ccncc2)nc(N)nc1-c1cccc2ccccc12 [Substance 137] | 85.07 ± 1.02; n = 4 % of the controls | 58.04 ± 6.68; n = 4 % of the controls |  |  | 
